ChEMBL document CHEMBL1124964, “Synthesis, structure, and antiparasitic activity of sulfamoyl derivatives of ribavirin” (1990)
≈ marks a conversion by molar mass, not a printed value. Where “and” joins values, the source holds several entries; their conditions need not be identical. Equal values may be shown once.

Legend:
Assay type in all cases: functional
Leishmania donovani [1] = assay: In vitro antiparasitic activity against Leishmania donovani was determined; conditions: read-out: ED50 (the source's name)
Trichomonas vaginalis = assay: In vitro antiparasitic activity against […] was determined; conditions: read-out: ED50 (the source's name)
Leishmania donovani [2] = assay: % […] = 100 - 100(LDUs of experimental / LDUs of control).
[3] = tested on: Trypanosoma brucei gambiense; assay: In vitro antiparasitic activity against Trypanosoma gambiense was determined; conditions: read-out: ED50 (the source's name)
Mus musculus [4] = assay: In vivo LDUs (Leishmania Donovan Units) in liver of mouse at a dose of 20 mg/kg/day
Giardia intestinalis = assay: In vitro antiparasitic activity against Giardia lamblia was determined; conditions: Giardia duodenalis; read-out: ED50 (the source's name)
Leishmania donovani [5] = assay: % Suppression = 100 - 100(LDUs of experimental / LDUs of control).
Mus musculus [6] = assay: In vivo LDUs (Leishmania Donovan Units) in liver of mouse at a dose of 10 mg/kg/day
Mus musculus [7] = assay: In vivo LDUs (Leishmania Donovan Units) in liver of mouse at a dose of 50 mg/kg/day
Trypanosoma cruzi = assay: In vitro antiparasitic activity against Trypanosoma cruzi was determined; conditions: read-out: ED50 (the source's name)
Mus musculus [8] = species on record: Mus musculus; assay: LDUs (Leishmania Donovan Units) in liver The liver parasite burden expressed as Leishmania Donovanii units at
Trypanosoma brucei [9] = assay: In vivo antiparasitic activity against Trypanosoma brucei was tested at 20 mg/kg. Range of survival of mice; 4-11
Mus musculus [10] = species on record: Mus musculus; assay: LDUs (Leishmania Donovan Units) in liver The liver parasite burden expressed as Leishmania Donovanii units
Trypanosoma brucei [11] = assay: In vivo antiparasitic activity against Trypanosoma brucei was tested. Range of survival of mice.
Trypanosoma brucei [12] = assay: In vivo antiparasitic activity against Trypanosoma brucei was tested at 50 mg/kg. Percent of mice cured after administering the compound.
Trypanosoma brucei [13] = assay: In vivo antiparasitic activity against Trypanosoma brucei was tested at 50 mg/kg (p.o.). Percent of mice cured after administering the compound.; conditions: route oral
Trypanosoma brucei [14] = assay: In vivo antiparasitic activity against Trypanosoma brucei was tested. Average survival time of the mice taken in this experiment.
Trypanosoma brucei [15] = assay: In vivo antiparasitic activity against Trypanosoma brucei was tested at 10 mg/kg. Average survival time of the mice taken in this experiment.
Trypanosoma brucei [16] = assay: In vivo antiparasitic activity against Trypanosoma brucei was tested at 1 mg/kg. Average survival time of the mice was determined
Trypanosoma brucei [17] = assay: In vivo antiparasitic activity against Trypanosoma brucei was tested at 5 mg/kg. Average survival time of the mice taken in this experiment.
Trypanosoma brucei [18] = assay: In vivo antiparasitic activity against Trypanosoma brucei was tested at 50 mg/kg. Range of survival of mice; 10-4
Trypanosoma brucei [19] = assay: In vivo antiparasitic activity against Trypanosoma brucei was tested at 50 mg/kg. Average survival time of the mice taken in this experiment.
Trypanosoma brucei [20] = assay: In vivo antiparasitic activity against Trypanosoma brucei was tested at 1 mg/kg Percent of mice cured after oral administration
Trypanosoma brucei [21] = assay: In vivo antiparasitic activity against Trypanosoma brucei was tested at 50 mg/kg (p.o.). Average survival time of the mice taken in this experiment.; conditions: route oral
Trypanosoma brucei [22] = assay: In vivo antiparasitic activity against Trypanosoma brucei was tested at 5 mg/kg. Range of survival of mice; 4-6
Trypanosoma brucei [23] = assay: In vivo antiparasitic activity against Trypanosoma brucei was tested at 20 mg/kg. Percent of mice cured after administering the compound.
Trypanosoma brucei [24] = assay: In vivo antiparasitic activity against Trypanosoma brucei was tested at 50 mg/kg (i.v.). Range of survival of mice; 4-12; conditions: route intravenous
Trypanosoma brucei [25] = assay: In vivo antiparasitic activity against Trypanosoma brucei was tested at 1 mg/kg. Range of survival of mice; 4-5
Trypanosoma brucei [26] = assay: In vivo antiparasitic activity against Trypanosoma brucei was tested at 50 mg/kg (p.o.). Range of survival of mice; 10-14; conditions: route oral
Trypanosoma brucei [27] = assay: In vivo antiparasitic activity against Trypanosoma brucei was tested at 50 mg/kg (i.v.). Average survival time of the mice taken in this experiment.; conditions: route intravenous
Leishmania donovani [28] = assay: % Suppression = 100 - 100(LDUs of experimental / LDUs of control) at
Trypanosoma brucei [29] = assay: In vivo antiparasitic activity against Trypanosoma brucei was tested. Percent of mice cured after administering the compound.
Trypanosoma brucei [30] = assay: In vivo antiparasitic activity against Trypanosoma brucei was tested at 10 mg/kg. Range of survival of mice; 4-11
Trypanosoma brucei [31] = assay: In vivo antiparasitic activity against Trypanosoma brucei was tested at 10 mg/kg. Percent of mice cured after administering the compound.
Trypanosoma brucei [32] = assay: In vivo antiparasitic activity against Trypanosoma brucei was tested at 5 mg/kg. Percent of mice cured after administering the compound.
Trypanosoma brucei [33] = assay: In vivo antiparasitic activity against Trypanosoma brucei was tested at 20 mg/kg. Average survival time of the mice taken in this experiment.
Trypanosoma brucei [34] = assay: In vivo antiparasitic activity against Trypanosoma brucei was tested at 50 mg/kg (i.v.).. Percent of mice cured after administering the compound.; conditions: route intravenous
Mus musculus [35] = assay: In vivo antiparasitic activity against Trypanosoma brucei was tested at […]. Percent of mice cured after oral administration
Mus musculus [36] = assay: In vivo antiparasitic activity against Trypanosoma brucei was tested at 25 mg/kg. Average survival time of the mice was determined
Mus musculus [37] = assay: In vivo antiparasitic activity against Trypanosoma brucei was tested at […]. Range of survival of mice.

`NC(=S)c1ncn(C2O[C@H](COS(N)(=O)=O)[C@@H](O)[C@H]2O)n1` (stereo partly specified) showed an EC50 (Leishmania donovani [1]) of 2.5 µg/mL (≈ 7.37 µM), an EC50 (Trichomonas vaginalis) of 15 µg/mL (≈ 44.2 µM) and a Suppression (Leishmania donovani [2]) of 0%. The EC50 [3] was 0.5 µg/mL (≈ 1.47 µM), the Activity (Mus musculus [4]) was 1143 and the EC50 (Giardia intestinalis) was > 25 µg/mL. For the same molecule, the Suppression (Leishmania donovani [5]) was 0%, the Activity (Mus musculus [6]) was 1039 and the Activity (Mus musculus [7]) was 1514. For the same molecule, the EC50 (Trypanosoma cruzi) was > 50 µg/mL.

`NC(=O)c1ncn(C2O[C@H](COS(N)(=O)=O)[C@@H](O)[C@H]2O)n1` (stereo partly specified) gave an Activity (Mus musculus [8]) of 1244, a Range of survival (Trypanosoma brucei [9]) of 4 and an EC50 (Leishmania donovani [1]) of 0.03 µg/mL (≈ 0.0928 µM). For the same molecule, the Activity (Mus musculus [10]) was 765 and 501, the Range of survival (Trypanosoma brucei [11]) was 5 and the EC50 (Trichomonas vaginalis) was > 25 µg/mL. The Cured (Trypanosoma brucei [12]) was 0%, the Cured (Trypanosoma brucei [13]) was 0% and the Average survival (Trypanosoma brucei [14]) was 3.4 days. It also gave an Average survival (Trypanosoma brucei [15]) of 7.4 days, an EC50 [3] of 0.01 µg/mL (≈ 0.0309 µM) and an Average survival (Trypanosoma brucei [16]) of 4.6 days. For the same molecule, the Average survival (Trypanosoma brucei [17]) was 4.8 days, the Range of survival (Trypanosoma brucei [18]) was 4 and the Average survival (Trypanosoma brucei [19]) was 6.4 days. It also gave a Cured (Trypanosoma brucei [20]) of 0%, an Average survival (Trypanosoma brucei [21]) of 11.6 days and a Range of survival (Trypanosoma brucei [22]) of 4. The Cured (Trypanosoma brucei [23]) was 0%, the EC50 (Giardia intestinalis) was 10 µg/mL (≈ 30.9 µM) and the Range of survival (Trypanosoma brucei [24]) was 4. For the same molecule, the Range of survival (Trypanosoma brucei [25]) was 4, the Suppression (Leishmania donovani [5]) was 50% and 67% and the Range of survival (Trypanosoma brucei [26]) was 10. For the same molecule, the Average survival (Trypanosoma brucei [27]) was 6.4 days, the Suppression (Leishmania donovani [28]) was 18% and the Cured (Trypanosoma brucei [29]) was 0%. The Range of survival (Trypanosoma brucei [30]) was 4, the Cured (Trypanosoma brucei [31]) was 0% and the Cured (Trypanosoma brucei [32]) was 0%. The EC50 (Trypanosoma cruzi) was > 50 µg/mL, the Average survival (Trypanosoma brucei [33]) was 7.4 days and the Cured (Trypanosoma brucei [34]) was 0%.

`O=C1N=CN=C2C1N=CC2[C@@H]1O[C@H](CO)[C@@H](O)[C@H]1O` (stereo partly specified) gave a Cured (Mus musculus [35]) of 100%, an Average survival (Mus musculus [36]) of 35 days and a Range of survival (Mus musculus [37]) of 35.

For `N#Cc1ncn(C2O[C@H](COS(N)(=O)=O)[C@@H](O)[C@H]2O)n1` (stereo partly specified), the EC50 (Leishmania donovani [1]) was 1 µg/mL (≈ 3.28 µM), the EC50 (Trichomonas vaginalis) was > 25 µg/mL and the EC50 [3] was 1 µg/mL (≈ 3.28 µM). The EC50 (Giardia intestinalis) was > 25 µg/mL and the EC50 (Trypanosoma cruzi) was > 50 µg/mL.
